Reference: patent US4435583A, “2-Halo-substituted monic acid A useful as antibacterial compounds” (Beecham Group p.l.c., priority 1981, dated 1984)
In brackets after ≈: the same amount, converted by molar mass.

Key:
Format in all cases: cell-based
S. typhimurium S18 = assay: MIC against veterinary bacteria; conditions: Salmonella enterica, Diagnostic Sensitivity Test Agar, 18 hours, 37° C., read-out: MIC
Protocol: (§1) The values were determined using a two fold serial dilutions in Diagnostic Sensitivity Test Agar with an inoculum of 10^4 organisms and incubation for 18 hours at 37° C.

Staph. aureus Oxford [1] = assay: MIC against veterinary bacteria; conditions: Staphylococcus aureus, 18 h, Diagnostic Sensitivity Test Agar, 37° C., read-out: MIC
Protocol: as §1

Strep. agalactiae SPA1 = assay: MIC against veterinary bacteria; conditions: Streptococcus agalactiae, SPA1, 18 h, Diagnostic Sensitivity Test Agar, 37° C., read-out: MIC
Protocol: as §1

[2] = tested on: Corynebacterium pyogenes CY1; assay: MIC against veterinary bacteria; conditions: Rhodococcus (subgen. Prescottella) equi, Diagnostic Sensitivity Test Agar, 18 hours, 37° C., read-out: MIC
Protocol: as §1

Past. multocida PA2 = assay: MIC against veterinary bacteria; conditions: Pasteurella multocida, PA2, 18 h, Diagnostic Sensitivity Test Agar, 37° C., read-out: MIC
Protocol: as §1

[3] = tested on: Erysipelothrix rhusiopathiae NCTC 8163; assay: MIC against veterinary bacteria; conditions: NCTC8163, Diagnostic Sensitivity Test Agar, 18 hours, 37° C., read-out: MIC
Protocol: as §1

Staph. aureus B4 = assay: MIC against veterinary bacteria; conditions: Staphylococcus aureus, B4, 18 h, Diagnostic Sensitivity Test Agar, 37° C., read-out: MIC
Protocol: as §1

Past. haemolytica PA5 = assay: MIC against veterinary bacteria; conditions: Mannheimia haemolytica, PA5, 18 h, Diagnostic Sensitivity Test Agar, 37° C., read-out: MIC
Protocol: as §1

Past. multocida PA1 = assay: MIC against veterinary bacteria; conditions: Pasteurella multocida, PA1, 18 h, Diagnostic Sensitivity Test Agar, 37° C., read-out: MIC
Protocol: as §1

Bord. bronchiseptica B08 = assay: MIC against veterinary bacteria; conditions: Bordetella bronchiseptica, B08, 18 h, Diagnostic Sensitivity Test Agar, 37° C., read-out: MIC
Protocol: as §1

E. coli NCTC 10418 [4] = assay: MIC against veterinary bacteria; conditions: Escherichia coli, NCTC10418, Diagnostic Sensitivity Test Agar, 18 hours, 37° C., read-out: MIC
Protocol: as §1

Bord. bronchiseptica B09 = assay: MIC against veterinary bacteria; conditions: Bordetella bronchiseptica, B09, 18 h, Diagnostic Sensitivity Test Agar, 37° C., read-out: MIC
Protocol: as §1

Strep. dysgalactiae SPD1 = assay: MIC against veterinary bacteria; conditions: Streptococcus dysgalactiae, SPD1, 18 h, Diagnostic Sensitivity Test Agar, 37° C., read-out: MIC
Protocol: as §1

[5] = tested on: Strep. suis (group D) SPS11; assay: MIC against veterinary bacteria; conditions: Streptococcus suis, 18 h, Diagnostic Sensitivity Test Agar, 37° C., read-out: MIC
Protocol: as §1

S. dublin S7 = assay: MIC against veterinary bacteria; conditions: Salmonella enterica, Diagnostic Sensitivity Test Agar, 18 hours, 37° C., read-out: MIC
Protocol: as §1

E. coli E1 = assay: MIC against veterinary bacteria; conditions: Escherichia coli, Diagnostic Sensitivity Test Agar, 18 hours, 37° C., read-out: MIC
Protocol: as §1

Strep. uberis SPU1 = assay: MIC against veterinary bacteria; conditions: Streptococcus uberis, SPU1, 18 h
Protocol: as §1

Staph. aureus 152 = assay: MIC against veterinary bacteria; conditions: Staphylococcus aureus, 152, 18 h, Diagnostic Sensitivity Test Agar, 37° C., read-out: MIC
Protocol: as §1

[6] = tested on: Ps. aeruginosa NCTC 10662; assay: MIC against human bacteria; conditions: Pseudomonas aeruginosa, NCTC10662, nutrient agar, 5% chocolated horse blood, 18 hours, 37° C., read-out: MIC
Protocol: (§2) The values were determined by serial dilutions in nutrient agar with 5% chocolated horse blood after incubations for 18 hours at 37° C.

[7] = tested on: Haemophilus influenzae Q1; assay: MIC against human bacteria; conditions: nutrient agar, 5% chocolated horse blood, 18 hours, 37° C., read-out: MIC
Protocol: as §2

Strep. 2788-B = assay: MIC against human bacteria; conditions: 18 h, nutrient agar, 5% chocolated horse blood, 37° C., read-out: MIC
Protocol: as §2

[8] = tested on: Corynebacterium xerosis 9755; assay: MIC against human bacteria; conditions: nutrient agar, 5% chocolated horse blood, 18 hours, 37° C., read-out: MIC
Protocol: as §2

Staph. aureus Oxford [9] = assay: MIC against human bacteria; conditions: Staphylococcus aureus, 18 h, nutrient agar, 5% chocolated horse blood, 37° C., read-out: MIC
Protocol: as §2

Strep. faecalis I = assay: MIC against human bacteria; conditions: Enterococcus faecalis, nutrient agar, 5% chocolated horse blood, 18 hours, 37° C., read-out: MIC
Protocol: as §2

Sarcina lutea 8340 = assay: MIC against human bacteria; conditions: Micrococcus luteus, nutrient agar, 5% chocolated horse blood, 18 hours, 37° C., read-out: MIC
Protocol: as §2

Staph. aureus W2827 = assay: MIC against human bacteria; conditions: Staphylococcus aureus, W2827, 18 h, nutrient agar, 5% chocolated horse blood, 37° C., read-out: MIC
Protocol: as §2

Staph. aureus Russell = assay: MIC against human bacteria; conditions: Staphylococcus aureus, 18 h, nutrient agar, 5% chocolated horse blood, 37° C., read-out: MIC
Protocol: as §2

Strep. 641848-C = assay: MIC against human bacteria; conditions: 18 h, nutrient agar, 5% chocolated horse blood, 37° C., read-out: MIC
Protocol: as §2

[10] = tested on: Strep. pyrogenes R80/421-A; assay: MIC against human bacteria; conditions: 18 h, nutrient agar, 5% chocolated horse blood, 37° C., read-out: MIC
Protocol: as §2

K. aerogenes A = assay: MIC against human bacteria; conditions: Klebsiella aerogenes, nutrient agar, 5% chocolated horse blood, 18 hours, 37° C., read-out: MIC
Protocol: as §2

P. mirabilis 889 = assay: MIC against human bacteria; conditions: Proteus mirabilis, nutrient agar, 5% chocolated horse blood, 18 hours, 37° C., read-out: MIC
Protocol: as §2

Strep. pneumoniae CN33 = assay: MIC against human bacteria; conditions: Streptococcus pneumoniae, CN33, 18 h, nutrient agar, 5% chocolated horse blood, 37° C., read-out: MIC
Protocol: as §2

Past. multocida 1633 = assay: MIC against human bacteria; conditions: Pasteurella multocida, 1633, 18 h, nutrient agar, 5% chocolated horse blood, 37° C., read-out: MIC
Protocol: as §2

E. coli NCTC 10418 [11] = assay: MIC against human bacteria; conditions: Escherichia coli, NCTC10418, nutrient agar, 5% chocolated horse blood, 18 hours, 37° C., read-out: MIC
Protocol: as §2

Bacillus subtilis 6633 = assay: MIC against human bacteria; conditions: Bacillus subtilis, 6633, 18 h, nutrient agar, 5% chocolated horse blood, 37° C., read-out: MIC
Protocol: as §2

[12] = tested on: Neisseria catarrhalis 1502; assay: MIC against human bacteria; conditions: Neisseria, 1502, 18 h, nutrient agar, 5% chocolated horse blood, 37° C., read-out: MIC
Protocol: as §2

E. coli ESS = assay: MIC against human bacteria; conditions: Escherichia coli, 18 h, nutrient agar, 5% chocolated horse blood, 37° C., read-out: MIC
Protocol: as §2

Compound: CC(CC1OCC(CC2OC2C(C)C(C)O)C(O)C1O)=C(F)C(=O)OCc1cccc([N+](=O)[O-])c1 [Example 4, 3-Nitrobenzyl 4-[5S-(2S,3S-epoxy-5S-hydroxy-4S-methylhexyl)-3R,4R-dihydroxytetrahydropyran-2S-yl]-2-fluoro-3-methylbut-2(Z)-enoate]
- MIC (S. typhimurium S18): > 80 µg/mL
- MIC (Staph. aureus Oxford [1]): 1.25 µg/mL (≈ 2.51 µM)
- MIC (Strep. agalactiae SPA1): 1.25 µg/mL (≈ 2.51 µM)
- MIC [2]: 80 µg/mL (≈ 161 µM)
- MIC (Past. multocida PA2): 0.312 µg/mL (≈ 0.627 µM)
- MIC [3]: 80 µg/mL (≈ 161 µM)
- MIC (Staph. aureus B4): 2.5 µg/mL (≈ 5.02 µM)
- MIC (Past. haemolytica PA5): 10 µg/mL (≈ 20.1 µM)
- MIC (Past. multocida PA1): 0.625 µg/mL (≈ 1.26 µM)
- MIC (Bord. bronchiseptica B08): 80 µg/mL (≈ 161 µM)
- MIC (E. coli NCTC 10418 [4]): > 80 µg/mL
- MIC (Bord. bronchiseptica B09): 10 µg/mL (≈ 20.1 µM)
- MIC (Strep. dysgalactiae SPD1): 0.312 µg/mL (≈ 0.627 µM)
- MIC [5]: 5 µg/mL (≈ 10 µM)
- MIC (S. dublin S7): > 80 µg/mL
- MIC (E. coli E1): > 80 µg/mL
- MIC (Strep. uberis SPU1): 0.156 µg/mL (≈ 0.314 µM)
- MIC (Staph. aureus 152): 1.25 µg/mL (≈ 2.51 µM)
- MIC [6]: > 100 µg/mL
- MIC [7]: 0.5 µg/mL (≈ 1 µM)
- MIC (Strep. 2788-B): 2.5 µg/mL (≈ 5.02 µM)
- MIC [8]: > 100 µg/mL
- MIC (Staph. aureus Oxford [9]): 2.5 µg/mL (≈ 5.02 µM)
- MIC (Strep. faecalis I): > 100 µg/mL
- MIC (Sarcina lutea 8340): > 100 µg/mL
- MIC (Staph. aureus W2827): 2.5 µg/mL (≈ 5.02 µM)
- MIC (Staph. aureus Russell): 2.5 µg/mL (≈ 5.02 µM)
- MIC (Strep. 641848-C): 0.5 µg/mL (≈ 1 µM)
- MIC [10]: 0.5 µg/mL (≈ 1 µM)
- MIC (K. aerogenes A): > 100 µg/mL
- MIC (P. mirabilis 889): > 100 µg/mL
- MIC (Strep. pneumoniae CN33): 0.5 µg/mL (≈ 1 µM)
- MIC (Past. multocida 1633): 2.5 µg/mL (≈ 5.02 µM)
- MIC (E. coli NCTC 10418 [11]): > 100 µg/mL
- MIC (Bacillus subtilis 6633): 0.5 µg/mL (≈ 1 µM)
- MIC [12]: 0.5 µg/mL (≈ 1 µM)
- MIC (E. coli ESS): 1 µg/mL (≈ 2.01 µM)
